Measurements as given in patent US20250134998A1, “T CELLS WITH CELL-SURFACE EXPRESSION OF ADENOSINE DEAMINASE AND USES THEREOF” (The Board of Trustees of the Leland Stanford Junior …, priority 2021, published 2025).

How the values were obtained:
Type in all cases: cell-based, human
HA and CD19 CAR T cells = assay: Cytokine secretion by idiotype-activated CAR T cells with NECA (ELISA); conditions: plate-bound idiotype, NECA treatment
Procedure: Co-culture Assays: CAR-T cells were cultured with 1 μM of CPI444 (CORVUS BIOPHARMA) for 2 to 24 hours before the duration of co-culture (unless stated otherwise) with tumor cells or plate-bound idiotype at the concentration 1 or 5 μg/ml. To stimulate a2aR, cells were treated with 0.01-0.1 mM of NECA (Torcis). For cytotoxicity assays, approximately 5×10^4 of tumor cells were co-cultured with CAR T cells at indicated ratio in 200 μL CM in 96-well flat bottom plates. Four images per well at 10× zoom were collected at each time point. Tumor cell growth was quantified by measuring total integrated GFP intensity per well using an IncuCyte ZOOM Live-Cell analysis system (Essen Bioscience) every 2-3 hr. GFP signal was normalized to the time 0 signal. Cell culture supernatants were collected at 24 hours, and interleukin-2 (IL-2) and interferon-g concentrations were determined by enzyme-linked immunosorbent assay (Biolegend). Triplicate wells were plated for each condition. […]
To test whether CAR T cells are susceptible to adenosine-mediated suppression, HA and CD19 CAR T cells were activated with plate-bounded idiotype in the presence or absence of the adenosine receptor agonist 5′-(N-ethylcarboxamido) adenosine (NECA), and analyzed the effector cytokine secretion capacity by ELISA (FIG. 6D; FIGS. 7A-7B). […]

NF-kB pathway = assay: NF-κB-GFP activation reporter in HA CAR-T cells
From the text: FIG. 7C illustrates NFkB-GFP activation level 4 hrs after stimulation of HA CAR T cells in the presence or absence of NECA and A2aR competitive inhibitor. Data are mean s.e.m. from triplicate wells.
To test whether CAR T cells are susceptible to adenosine-mediated suppression, HA and CD19 CAR T cells were activated with plate-bounded idiotype in the presence or absence of the adenosine receptor agonist 5′-(N-ethylcarboxamido) adenosine (NECA), and analyzed the effector cytokine secretion capacity by ELISA (FIG. 6D; FIGS. 7A-7B). […] Adenosine-dependent a2aR stimulation led to elevate intracellular 3′,5′-cyclic adenosine monophosphate (cAMP) which in turn inhibited the NF-kB pathway and cell proliferation (FIG. 6A). To evaluate whether adenosine suppression of CAR T cells worked through the same mechanisms, an NF-κB activation reporter was constructed by placing the Green Fluorescence Protein (GFP) gene downstream of NF-κB response elements. HA CAR-T cells were co-transduced with this NF-kB-GFP reporter. Upon activation with plate-bound idiotype, NECA diminished activation of the NF-kB-GFP reporter (FIG. 7C). This inhibitory effect on activation was prevented by addition of the selective A2aR competitive antagonist (iA2aR), confirming A2a receptor (A2aR) involvement in the suppressive effect of NECA on HA CAR-T cells.

CD19.BBz CAR T cells = assay: Suppression assay: IL-2 secretion by CD19 CAR T cells with HA CAR T cells present; conditions: CD19 CAR T cells pre-incubated with A2aR inhibitor, in the presence of adenosine-producing HA cells
Procedure: Suppression Assay: For assessing IL-2 secretion inhibition 5×10^4 CD19 CAR T cells 5×10^4 Nalm6 tumor cells together with 5×10^4 of HA CAR or Mock T cells were cultured in 300 μL CM in 96-well flat bottom plates for 24 h. Triplicate wells were plated for each condition. Culture supernatants were collected and analyzed for IL-2 by ELISA (BioLegend).
IL-2 secreted by CD19.BBz CAR T cells co-cultured with Nalm6 leukemia cells was measured in the presence or absence of bulk or sorted CD8+HA CAR T cells for 24 hours.
To test this hypothesis that adenosine production was responsible for the suppressive function of exhausted CAR T cells over neighboring cells, whether HA CAR-T cells were able to produce adenosine in an autocrine manner was investigated (FIG. 7D). Next, CD19 CAR T cells that were pre-incubated with A2aR inhibitor were activated in the presence or absence of (CD8) HA CAR T cells.

Nalm6-GD2 = assay: IL-2 and IFNγ ELISA, HA CAR T cells stimulated with Nalm6-GD2 with or without EHNA; conditions: 10 uM EHNA
Procedure: HA CAR T cells were stimulated with Nalm6-GD2 tumor line in the presence or absence of 10 uM of EHNA inhibitor at day 15 post-activation. IL-2 and IFNγ secretion was assessed using ELISA. One donor shown.
In some further experiments, CAR T cells overexpressing either ADA1-TM or ADA2-TM were activated with Nalm6-GD2 in the presence or absence of 10 uM of adenosine deaminase inhibitor—EHNA. It was observed that both CAR T cells overexpressing either HA-ADA1-TM or HA-ADA2-TM produced more IL-2 and IFNγ as compared to control group and this increase was abrogated in the presence of EHNA (see e.g., FIG. 12D).

`CCNC(=O)[C@H]1O[C@@H](n2cnc3c(N)ncnc32)[C@H](O)[C@@H]1O` [NECA, 5′-(N-ethylcarboxamido) adenosine] was tested, and the IFNγ production (HA and CD19 CAR T cells) was “reduced”, the IL-2 production (HA and CD19 CAR T cells) was “reduced” and the “activation of the NF-kB-GFP reporter” value (NF-kB pathway; plate-bound idiotype) was “diminished”.
`Cc1ccc(-c2nc(N)nc3c2nnn3Cc2cccc(CO[C@H]3CCOC3)n2)o1` [iA2aR] was tested, and the “IL-2 production by CD19 CAR T cells” value (CD19.BBz CAR T cells) was “restored IL-2 production” and the “inhibitory effect of NECA on NF-kB-GFP reporter activation” value (NF-kB pathway; A2aR antagonist added) was “prevented”.
For `CCCCCC[C@@H]([C@@H](C)O)n1cnc2c(N)ncnc21` (racemic) [EHNA], the “increase in IFNγ by CAR T cells overexpressing HA-ADA1-TM or HA-ADA2-TM” value (Nalm6-GD2) was “abrogated” and the “increase in IL-2 by CAR T cells overexpressing HA-ADA1-TM or HA-ADA2-TM” value (Nalm6-GD2) was “abrogated”.
